Assays:
[1] = system: SREBP1, SPERBP2, FAS, and ACACA; assay: Comparison of retinoic acid signal transduction pathway modifiers: sebum-related gene expression in sebaceous gland cells; format: cell-based, human; details: for effect on sebum-related gene expression (SREBP1, SPERBP2, FAS, ACACA): sebaceous gland cells treated with 1 μM and 10 μM of each material, FIG. 5
Method: Primary sebocyte and human sebocyte complete medium were purchased from Celprogen and used.
(§1) After that, 1 ml of Trizol (Invitrogen) was added to the cells, and RNA was isolated from the cells according to the RNA isolation method (Invitrogen). The RNA was quantified using a UV detector (HEWLETT PACKARD) at 260 nm and subject to RT-PCR (reverse transcription-polymerase chain reaction).
(§2) Taqman probes were used for genetic analysis of SREBP1(Hs02561944_s1), SREBP2(Hs01081781_m1), fatty acid synthase(FAS: Hs01005622_m1), Acetyl-CoA Carboxylase(ACACA: Hs01046047_m1) for each sample, and normalization was performed with respect to the complementary gene RPL13A (Hs04194366_g1), and the result is shown in FIG. 4.

[2] = system: sebaceous gland cells; assay: Cytotoxicity in sebaceous gland cells during the comparison of Example 5; format: cell-based, human; details: 10 μM
[3] = system: SREBP2; assay: Genetic analysis of cholesterol/fatty acid transcription factors in sebaceous gland cells: SREBP2; format: cell-based, human; details: primary sebocytes, cultured 2 days, RT-PCR, FIG. 4
Method: (§3) Primary sebocyte and human sebocyte complete medium were purchased from Celprogen and used. The sebaceous gland cells were dispensed in a 60 mm cell culture dish at a density of 1.25×10^4 cells/dish, and then cultured in a CO2 incubator under the condition of 37° C. and 5% CO2 at about 80% confluency. Thereafter, 0 μM, 1 μM, and 10 μM of the compound of Chemical Formula 1 (Seletinoid G) were treated with the cells, respectively, and the cells were cultured for 2 days, and then changes in transcription factors related to sebum biosynthesis were confirmed.
as §1, with “The cells were treated with the material of Example 3, and then, cultured for 2 days, and then, the cell growth medium was removed. After” for “After”
as §2

[4] = system: SREBP1; assay: Genetic analysis of cholesterol/fatty acid transcription factors in sebaceous gland cells: SREBP1; format: cell-based, human; details: primary sebocytes, cultured 2 days, RT-PCR, FIG. 4
Method: as §3
as §1, with “The cells were treated with the material of Example 3, and then, cultured for 2 days, and then, the cell growth medium was removed. After” for “After”
as §2

[5] = system: fatty acid synthase (FAS); assay: Genetic analysis of cholesterol/fatty acid transcription factors in sebaceous gland cells: FAS; format: cell-based, human; details: primary sebocytes, cultured 2 days, RT-PCR, FIG. 4
Method: as §3
as §1, with “The cells were treated with the material of Example 3, and then, cultured for 2 days, and then, the cell growth medium was removed. After” for “After”
as §2

[6] = system: Acetyl-CoA Carboxylase (ACACA); assay: Genetic analysis of cholesterol/fatty acid transcription factors in sebaceous gland cells: ACACA; format: cell-based, human; details: primary sebocytes, cultured 2 days, RT-PCR, FIG. 4
Method: as §3
as §1, with “The cells were treated with the material of Example 3, and then, cultured for 2 days, and then, the cell growth medium was removed. After” for “After”
as §2

[7] = system: retinoic acid receptor (RAR); details: from paper of the Society of Cosmetic Scientists of Korea (2003); cited from earlier work

CC1=C(/C=C/C(C)=C/C=C/C(C)=C/C(=O)Nc2ccc(O)cc2)C(C)(C)CCC1 [fenretinide, reference compound]
effect on sebum-related gene expression (SREBP1, SPERBP2, FAS, ACACA) [1]: effect of suppressing sebum-related gene expression

CC1=C(/C=C/C(C)=C/C=C/C(C)=C/C(=O)O)C(C)(C)CCC1 [retinoic acid, reference compound]
cytotoxicity [2]: some cytotoxicity

O=C(/C=C/c1ccc2c(c1)OCO2)OCc1cc(=O)c(O)co1 [Seletinoid G, (5-hydroxy-4-oxopyran-2-yl)methyl (E)-3-(1,3-benzodioxol-5-yl)prop-2-enoate]
expression level of SPERBP2 reduced by ([3]; 1 μM): about 40% | expression level of SPERBP2 reduced by ([3]; 10 μM): ~55% | cytotoxicity [2]: without causing cytotoxicity | expression level of SREBP1 reduced by ([4]; 1 μM): about 40% | expression level of SREBP1 reduced by ([4]; 10 μM): about 60% | effect on sebum-related gene expression (SREBP1, SPERBP2, FAS, ACACA) [1]: effect of suppressing sebum-related gene expression | reduction of the expression level of the transcription factors (SREBP1a, SPERBP2, FAS, ACACA) ([1]; sebaceous gland cells, 10 μM): more than 60% | expression level of FAS reduced by ([5]; 1 μM): ~30% | expression level of FAS reduced by ([5]; 10 μM): ~45% | expression level of ACACA reduced by ([6]; 1 μM): ~30% | expression level of ACACA reduced by ([6]; 10 μM): about 60% | binding to retinoic acid receptor (specificity) [7]: specifically binds to RARγ

Clc1cccc(C(c2ccc3[nH]cnc3c2)n2ccnc2)c1 (stereo not drawn) [liarozole, reference compound]
effect on sebum-related gene expression (SREBP1, SPERBP2, FAS, ACACA) [1]: did not show a significant difference
